Reference: PubChem BioAssay (NCI)
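96-well plates; 48 h exposure; 5 concentrations. Endpoints by linear interpolation between flanking doses. Not reached: highest tested concentration assigned. Definition used: TGI = concentration required for complete inhibition of growth.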

What was measured:
Experiment in all cases: inhibition of tumour cell growth, NCI panel, 48 h
MDA-MB-435 = test system: MDA-MB-435
SK-MEL-28 melanoma = test system: SK-MEL-28 melanoma
MDA-MB-231 breast = test system: MDA-MB-231 breast
A549 NSCLC = test system: A549 NSCLC
SNB-19 CNS = test system: SNB-19 CNS
NCI/ADR-RES ovarian = test system: NCI/ADR-RES ovarian
NCI-H226 lung = test system: NCI-H226 lung
M14 melanoma = test system: M14 melanoma
SR leukemia = test system: SR leukemia
SW-620 colon = test system: SW-620 colon
SF-295 CNS = test system: SF-295 CNS
IGROV1 ovarian = test system: IGROV1 ovarian
SF-268 CNS = test system: SF-268 CNS
OVCAR-5 ovarian = test system: OVCAR-5 ovarian
UACC-257 melanoma = test system: UACC-257 melanoma
MDA-N = test system: MDA-N
SNB-75 CNS = test system: SNB-75 CNS
UACC-62 melanoma = test system: UACC-62 melanoma
SK-MEL-5 melanoma = test system: SK-MEL-5 melanoma
DU-145 prostate = test system: DU-145 prostate
HCC-2998 colon = test system: HCC-2998 colon
CAKI-1 renal = test system: CAKI-1 renal
HCT-15 colon = test system: HCT-15 colon
T-47D breast = test system: T-47D breast
NCI-H460 lung = test system: NCI-H460 lung
HCT-116 colon = test system: HCT-116 colon
RPMI-8226 leukemia = test system: RPMI-8226 leukemia
NCI-H522 lung = test system: NCI-H522 lung
MOLT-4 leukemia = test system: MOLT-4 leukemia
OVCAR-8 ovarian = test system: OVCAR-8 ovarian
SK-OV-3 ovarian = test system: SK-OV-3 ovarian
RXF 393 renal = test system: RXF 393 renal
MALME-3M melanoma = test system: MALME-3M melanoma
HL-60(TB) leukemia = test system: HL-60(TB) leukemia
HT29 colon = test system: HT29 colon
UO-31 renal = test system: UO-31 renal
SF-539 CNS = test system: SF-539 CNS
LOX IMVI melanoma = test system: LOX IMVI melanoma
SK-MEL-2 melanoma = test system: SK-MEL-2 melanoma
CCRF-CEM leukemia = test system: CCRF-CEM leukemia
U251 CNS = test system: U251 CNS
BT-549 breast = test system: BT-549 breast
K-562 leukemia = test system: K-562 leukemia
OVCAR-3 ovarian = test system: OVCAR-3 ovarian
HOP-92 NSCLC = test system: HOP-92 NSCLC
OVCAR-4 ovarian = test system: OVCAR-4 ovarian
COLO 205 colon = test system: COLO 205 colon
HOP-62 NSCLC = test system: HOP-62 NSCLC
TK-10 renal = test system: TK-10 renal
PC-3 prostate = test system: PC-3 prostate
HS 578T breast = test system: HS 578T breast
786-0 renal = test system: 786-0 renal
NCI-H23 lung = test system: NCI-H23 lung
MCF7 breast = test system: MCF7 breast
KM12 colon = test system: KM12 colon
A498 renal = test system: A498 renal
ACHN renal = test system: ACHN renal
SN12C renal = test system: SN12C renal
EKVX NSCLC = test system: EKVX NSCLC

For `S=C(N/N=C(/c1ccccc1)c1ccccn1)Nc1ccccc1Cl`, the TGI (MDA-MB-435) was 8.77 µM, the TGI (SK-MEL-28 melanoma) was 19.1 µM and the TGI (MDA-MB-231 breast) was 2.19 µM. The TGI (A549 NSCLC) was 13 µM, the TGI (SNB-19 CNS) was 15.8 µM and the TGI (NCI/ADR-RES ovarian) was 5.18 µM. It also gave a TGI (NCI-H226 lung) of 2.67 µM, a TGI (M14 melanoma) of 2.89 µM and a TGI (SR leukemia) of 3.04 µM. For the same compound, the TGI (SW-620 colon) was 14.8 µM, the TGI (SF-295 CNS) was 7.29 µM and the TGI (IGROV1 ovarian) was 7.84 µM. The TGI (SF-268 CNS) was 13.3 µM, the TGI (OVCAR-5 ovarian) was 6.94 µM and the TGI (UACC-257 melanoma) was 12.6 µM. It also gave a TGI (MDA-N) of 13.6 µM, a TGI (SNB-75 CNS) of 19.4 µM and a TGI (UACC-62 melanoma) of 14.6 µM. It also gave a TGI (SK-MEL-5 melanoma) of 2.63 µM, a TGI (DU-145 prostate) of 17.8 µM and a TGI (HCC-2998 colon) of 8.11 µM. It also gave a TGI (CAKI-1 renal) of 11.5 µM, a TGI (HCT-15 colon) of 7.36 µM and a TGI (T-47D breast) of 0.857 µM. The TGI (NCI-H460 lung) was 6.24 µM, the TGI (HCT-116 colon) was 3.44 µM and the TGI (RPMI-8226 leukemia) was greater than 7.31 µM. It also gave a TGI (NCI-H522 lung) of 1.89 µM, a TGI (MOLT-4 leukemia) of 1.02 µM and a TGI (OVCAR-8 ovarian) of 4.98 µM. It also gave a TGI (SK-OV-3 ovarian) of 13 µM, a TGI (RXF 393 renal) of 4.24 µM and a TGI (MALME-3M melanoma) of 12.2 µM. For the same compound, the TGI (HL-60(TB) leukemia) was 0.228 µM, the TGI (HT29 colon) was 13.4 µM and the TGI (UO-31 renal) was 5.96 µM. The TGI (SF-539 CNS) was 6.59 µM, the TGI (LOX IMVI melanoma) was 23.3 µM and the TGI (SK-MEL-2 melanoma) was 1.8 µM. For the same compound, the TGI (CCRF-CEM leukemia) was greater than 38.1 µM, the TGI (U251 CNS) was 10.9 µM and the TGI (BT-549 breast) was 17.3 µM. The TGI (K-562 leukemia) was greater than 5.82 µM, the TGI (OVCAR-3 ovarian) was 11.2 µM and the TGI (HOP-92 NSCLC) was 11 µM. It also gave a TGI (OVCAR-4 ovarian) of 18.2 µM, a TGI (COLO 205 colon) of 2.31 µM and a TGI (HOP-62 NSCLC) of 16.6 µM. It also gave a TGI (TK-10 renal) of 12.6 µM, a TGI (PC-3 prostate) of 13.3 µM and a TGI (HS 578T breast) of 24 µM. For the same compound, the TGI (786-0 renal) was 13.1 µM, the TGI (NCI-H23 lung) was 16.7 µM and the TGI (MCF7 breast) was 6.89 µM. For the same compound, the TGI (KM12 colon) was 16.2 µM, the TGI (A498 renal) was 7.19 µM and the TGI (ACHN renal) was 9.46 µM. For the same compound, the TGI (SN12C renal) was 14.9 µM and the TGI (EKVX NSCLC) was 9.92 µM.
